This assay addresses T1, KCNQ2/3 channels (Homo sapiens, UniProt O43525+O43526).
T1 construct: expressed in transfected cells
The assay is described as follows: Fluorescence assay using a voltage sensitive dye (fluorimetry). It is filed as cell-based. The conditions noted are these: CHO-K1 cells expressing KCNQ2/3; for Emax: CHO-K1, plateau effect relative to saturated retigabine (50 μM) = 100%, negative values = antagonistic, read-out: Fluorimetry % efficacy (retigabine = 100%); for EC50: IC50 where % efficacy is negative, read-out: Fluorimetry EC50/IC50. The source says:
Method I. Fluorescence Assay Using a Voltage Sensitive Dye (Fluorimetry)
These voltage-sensitive dyes are fluorescent dyes and, therefore, are forming the link between cell potential influenced by KCNQ modulation and fluorescence intensity. A KCNQ agonist leads to an opening of the channel, potassium and dye efflux, a following hyperpolarization and a reduction of the inner fluorescence intensity in a kinetic protocol. If applying an ion jump by KCl depolarization, KCNQ agonists increase the ΔF/F value. An antagonist performs vice versa, respectively.
Therefore, ‘fluorimetry EC50’ is a measure for the compound potency. The compound efficacy is mirrored by ‘fluorimetry % efficacy’ (‘% Efficacy’) and refers to the maximum response achievable by the test compound, i.e. the plateau effect. This drug's plateau effect is related to the plateau effect, which can be achieved by applying a saturated concentration of a reference compound, e.g. Retigabine (50 μM), in independent wells of the same experimental plate or series.
[…] CHO-K1 cells expressing KCNQ2/3 channels are cultivated adherently at 37° C., 5% CO2 and 95% humidity in cell culture bottles (e.g. 80 cm^2 TC flasks, Nunc) with DMEM-high glucose (Sigma Aldrich, D7777) including 10% FCS (PAN Biotech, e.g. 3302-P270521) or alternatively MEM Alpha Medium (1×, liquid, Invitrogen, #22571), 10% fetal calf serum (FCS) (Invitrogen, #10270-106, heat-inactivated) and the necessary selection antibiotics.
The cell number is determined using a CASY™ cell counter (TCC, Schärfe System). Depending on the optimal density for each individual cell line, 20,000-30,000 cells/well/100 μl are seeded onto 96-well Corning™ CellBIND™ assay plates (Flat Clear Bottom Black Polystyrene Microplates, #3340). Freshly seeded cells are then left to settle for one hour at room temperature, followed by incubation for 24 hours at 37° C., 5% CO2 and 95% humidity.
The voltage-sensitive fluorescent dye from the Membrane Potential Assay Kit (Red™ Bulk format part R8123 for FLIPR, MDS Analytical Technologies™) is prepared by dissolving the contents of one vessel Membrane Potential Assay Kit Red Component A in 200 ml of extracellular buffer (ES buffer, 120 mM NaCl, 1 mM KCl, 10 mM HEPES, 2 mM CaCl2, 2 mM MgCl2, 10 mM glucose; pH 7.4). After removal of the nutrient medium, the cells are washed once with 200 μl of ES buffer, then loaded for 45 min at room temperature in 100 μl of dye solution in the dark.
Fluorescence measurements are carried out in a BMG Labtech FLUOstar™, BMG Labtech NOVOstar™ or BMG Labtech POLARstar™ instrument (525 nm excitation, 560 nm emission, Bottom Read mode). After incubation with the dye, 50 μl of the test substances in the desired concentrations, or 50 μl of ES buffer for control purposes, are applied to the wells of the assay plate and incubated for 30 min at room temperature while being shielded from light. The fluorescence intensity of the dye is then measured for 5 min and the fluorescence value F1 of each well is thus determined at a given, constant time. 15 μl of a KCl solution are then added to each well (final concentration of potassium ions 92 mM). The change in fluorescence intensity is subsequently monitored until all the relevant values have been obtained (mainly 5-30 min). At a given time post KCl application, a fluorescence value F2 is determined, in this case at the time of the fluorescence peak.
For calculation, the fluorescence intensity F2 is corrected for the fluorescence intensity F1, and the activity (ΔF/F) of the target compound on the potassium channel is determined as follows:
In order to determine whether a substance has agonistic activity,
[formula] can be related to
[formula] of control wells.
[formula] is determined by adding to the well only the buffer solution instead of the test substance, determining the value F1K of the fluorescence intensity, adding the potassium ions as described above, and measuring a value F2K of the fluorescence intensity.

23 compounds from patent publication US9168259B2 (GRÜNENTHAL GMBH, priority 2010, dated 2015) can be followed below.

T1 sequence (O43526 whole entry): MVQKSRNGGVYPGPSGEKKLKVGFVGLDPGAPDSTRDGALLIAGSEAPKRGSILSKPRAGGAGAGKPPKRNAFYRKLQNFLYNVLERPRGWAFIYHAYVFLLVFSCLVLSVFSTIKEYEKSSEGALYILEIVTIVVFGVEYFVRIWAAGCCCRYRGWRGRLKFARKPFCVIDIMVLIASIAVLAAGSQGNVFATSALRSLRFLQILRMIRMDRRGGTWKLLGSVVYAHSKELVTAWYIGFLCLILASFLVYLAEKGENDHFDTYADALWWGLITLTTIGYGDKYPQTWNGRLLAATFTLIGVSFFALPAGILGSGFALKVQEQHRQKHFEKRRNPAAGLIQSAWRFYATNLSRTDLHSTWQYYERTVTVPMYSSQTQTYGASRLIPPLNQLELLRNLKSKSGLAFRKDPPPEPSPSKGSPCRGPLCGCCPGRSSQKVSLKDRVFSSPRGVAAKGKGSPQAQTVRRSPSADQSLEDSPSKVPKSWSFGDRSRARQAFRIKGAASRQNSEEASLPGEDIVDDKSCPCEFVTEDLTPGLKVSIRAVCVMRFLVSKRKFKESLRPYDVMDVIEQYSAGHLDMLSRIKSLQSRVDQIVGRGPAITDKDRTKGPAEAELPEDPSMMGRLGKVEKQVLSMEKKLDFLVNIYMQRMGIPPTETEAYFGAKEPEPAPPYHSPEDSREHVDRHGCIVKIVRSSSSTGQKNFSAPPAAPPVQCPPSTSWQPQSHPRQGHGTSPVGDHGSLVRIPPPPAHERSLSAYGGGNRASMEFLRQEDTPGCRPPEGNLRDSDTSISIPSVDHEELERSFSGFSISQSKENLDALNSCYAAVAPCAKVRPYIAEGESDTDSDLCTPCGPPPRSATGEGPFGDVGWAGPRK
T1 sequence (O43525 whole entry): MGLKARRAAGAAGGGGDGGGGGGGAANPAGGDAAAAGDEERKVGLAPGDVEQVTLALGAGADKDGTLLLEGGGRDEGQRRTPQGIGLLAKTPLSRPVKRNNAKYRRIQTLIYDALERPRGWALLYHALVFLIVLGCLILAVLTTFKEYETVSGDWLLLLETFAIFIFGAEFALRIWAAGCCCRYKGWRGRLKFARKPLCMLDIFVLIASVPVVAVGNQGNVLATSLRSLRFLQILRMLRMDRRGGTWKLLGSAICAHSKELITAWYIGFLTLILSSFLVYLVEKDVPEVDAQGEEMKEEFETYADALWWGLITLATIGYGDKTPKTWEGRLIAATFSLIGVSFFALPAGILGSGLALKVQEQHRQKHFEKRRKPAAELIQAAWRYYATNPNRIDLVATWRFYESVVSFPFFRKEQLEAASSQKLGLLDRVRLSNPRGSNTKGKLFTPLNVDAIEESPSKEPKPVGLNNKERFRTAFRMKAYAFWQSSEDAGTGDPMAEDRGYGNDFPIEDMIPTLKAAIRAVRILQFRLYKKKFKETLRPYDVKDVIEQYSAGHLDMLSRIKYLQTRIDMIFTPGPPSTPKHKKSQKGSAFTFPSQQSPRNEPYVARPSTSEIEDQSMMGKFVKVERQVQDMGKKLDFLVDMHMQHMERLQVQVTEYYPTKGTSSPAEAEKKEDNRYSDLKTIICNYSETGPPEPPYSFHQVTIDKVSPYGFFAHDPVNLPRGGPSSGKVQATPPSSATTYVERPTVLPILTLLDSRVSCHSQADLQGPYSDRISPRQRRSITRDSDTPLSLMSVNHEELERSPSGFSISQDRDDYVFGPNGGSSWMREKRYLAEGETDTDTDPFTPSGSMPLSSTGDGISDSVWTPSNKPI

On to `CCSc1nc(N2CCc3cc(C(F)(F)F)ccc3C2)cc(C)c1C(=O)NCc1cccc(F)c1` [Example 27, 2-Ethylsulfanyl-N-[(3-fluorophenyl)-methyl]-4-methyl-6-[6-(trifluoromethyl)-1,2,3,4-tetrahydro-isoquinolin-2-yl]pyridine-3-carboxylic acid amide], for which the Emax turned out to be 132% and the EC50 was found to be 151 nM.

Turning to `CCCc1nc(N2CCOCC2)cc(C)c1C(=O)NCc1ccc(F)cc1` [Example 29, N-[(4-Fluorophenyl)-methyl]-4-methyl-6-morpholin-4-yl-2-propyl-pyridine-3-carboxylic acid amide], the Emax was 185% and the EC50 came out at 236 nM.

In the case of `CCSc1nc(N2CCC(OC)C2)cc(C)c1C(=O)NCc1cccc(F)c1` (stereo not drawn) [Example 30, 2-Ethylsulfanyl-N-[(3-fluorophenyl)-methyl]-6-(3-methoxy-pyrrolidin-1-yl)-4-methyl-pyridine-3-carboxylic acid amide], the Emax was found to be 144% and the EC50 is 1320 nM.

Turning to `CCSc1nc(N2CCN(C)CC2)cc(C)c1C(=O)NCc1cccc(F)c1` [Example 31, 2-Ethylsulfanyl-N-[(3-fluorophenyl)-methyl]-4-methyl-6-(4-methyl-piperazin-1-yl)-pyridine-3-carboxylic acid amide], the Emax is 23%.

As to `CCSc1nc(N2CCCCC2)cc(C)c1C(=O)NCc1cccc(F)c1` [Example 32, 2-Ethylsulfanyl-N-[(3-fluorophenyl)-methyl]-4-methyl-6-piperidin-1-yl-pyridine-3-carboxylic acid amide], the Emax was 166% and the EC50 amounted to 132 nM.

As for `CCSc1nc(N(C)C)cc(C)c1C(=O)NCc1cccc(F)c1` [Example 33, 6-Dimethylamino-2-ethylsulfanyl-N-[(3-fluorophenyl)-methyl]-4-methyl-pyridine-3-carboxylic acid amide], the Emax was found to be 110% and the EC50 amounted to 639 nM.

With `CCSc1nc(NC)cc(C)c1C(=O)NCc1cccc(F)c1` [Example 34, 2-Ethylsulfanyl-N-[(3-fluorophenyl)-methyl]-4-methyl-6-methylamino-pyridine-3-carboxylic acid amide], the Emax worked out at 37% and the EC50 was found to be 1830 nM.

On to `CCSc1nc(N(C)CCOC)cc(C)c1C(=O)NCc1cccc(F)c1` [Example 35, 2-Ethylsulfanyl-N-[(3-fluorophenyl)-methyl]-6-(2-methoxy-ethyl-methyl-amino)-4-methyl-pyridine-3-carboxylic acid amide], for which the Emax turned out to be 153% and the EC50 was 635 nM.

As for `CCSc1nc(NCCOC)cc(C)c1C(=O)NCc1cccc(F)c1` [Example 36, 2-Ethylsulfanyl-N-[(3-fluorophenyl)-methyl]-6-(2-methoxy-ethylamino)-4-methyl-pyridine-3-carboxylic acid amide], the Emax was 125% and the EC50 came out at 6000 nM.

In the case of `Cc1cc(N2CCOCC2)nc(SC(C)C)c1C(=O)NCc1cccc(F)c1` [Example 37, N-[(3-Fluorophenyl)-methyl]-2-(isopropylsulfanyl)-4-methyl-6-morpholin-4-yl-pyridine-3-carboxylic acid amide], the Emax came out at 148% and the EC50 was found to be 99 nM.

On to `COc1nc(N2CCOCC2)cc(C)c1C(=O)NCc1ccc(F)cc1` [Example 39, N-[(4-Fluorophenyl)-methyl]-2-methoxy-4-methyl-6-morpholin-4-yl-pyridine-3-carboxylic acid amide], for which the Emax amounted to 143% and the EC50 is 645 nM.

Regarding `CCSc1nc(N2CCOCC2)cc(C)c1C(=O)NCCC(C)C` [Example 42, 2-Ethylsulfanyl-4-methyl-N-(3-methyl-butyl)-6-morpholin-4-yl-pyridine-3-carboxylic acid amide], the Emax was determined as 169% and the EC50 is 571 nM.

Consider `CCSc1nc(N2CCOCC2)cc(C)c1C(=O)NCC1CCCC1` [Example 43, N-(Cyclopentyl-methyl)-2-ethylsulfanyl-4-methyl-6-morpholin-4-yl-pyridine-3-carboxylic acid amide], for which the Emax turned out to be 189% and the EC50 came to 679 nM.

Turning to `CCSc1nc(N2CCOCC2)cc(C)c1C(=O)NCCC1CCCC1` [Example 44, N-(2-Cyclopentyl-ethyl)-2-ethylsulfanyl-4-methyl-6-morpholin-4-yl-pyridine-3-carboxylic acid amide], the Emax is 116% and the EC50 was found to be 87 nM.

`CCSc1nc(N2CCOCC2)cc(C)c1C(=O)NCc1cccc(F)n1` [Example 45, 2-Ethylsulfanyl-N-[(6-fluoro-pyridin-2-yl)-methyl]-4-methyl-6-morpholin-4-yl-pyridine-3-carboxylic acid amide]: the Emax is 151% and the EC50 was found to be 3140 nM.

Take `CCSc1nc(N2CCOCC2)cc(C)c1C(=O)NCc1ccc(F)cn1` [Example 46, 2-Ethylsulfanyl-N-[(5-fluoro-pyridin-2-yl)-methyl]-4-methyl-6-morpholin-4-yl-pyridine-3-carboxylic acid amide]: the Emax was 143% and the EC50 is 4830 nM.

With `CCSc1nc(N2CCOCC2)cc(C)c1C(=O)NCC(C)(C)C` [Example 47, N-(2,2-Dimethyl-propyl)-2-ethylsulfanyl-4-methyl-6-morpholin-4-yl-pyridine-3-carboxylic acid amide], the Emax came out at 119% and the EC50 is 2610 nM.

For the compound `CCSc1nc(N2CCC(OC)CC2)cc(C)c1C(=O)NCc1cccc(F)c1` [Example 49, 2-Ethylsulfanyl-N-[(3-fluorophenyl)-methyl]-6-(4-methoxy-piperidin-1-yl)-4-methyl-pyridine-3-carboxylic acid amide], the Emax was 143% and the EC50 is 1460 nM.

With `CCSc1nc(N2CCOCC2)cc(C)c1C(=O)NCc1ccccc1-c1ccccc1` [Example 50, 2-Ethylsulfanyl-4-methyl-6-morpholin-4-yl-N-[(2-phenyl-phenyl)-methyl]-pyridine-3-carboxylic acid amide], the Emax is -97% and the EC50 stood at 63 nM.

As for `CCSc1nc(N2CCOCC2)cc(C)c1C(=O)NCc1ccccc1C(F)(F)F` [Example 51, 2-Ethylsulfanyl-4-methyl-6-morpholin-4-yl-N-[[2-(trifluoromethyl)-phenyl]methyl]-pyridine-3-carboxylic acid amide], the Emax is -84% and the EC50 amounted to 541 nM.

For `CCSc1nc(N(C)Cc2ccc(F)cc2)cc(C)c1C(=O)NCc1cccc(F)c1` [Example 52, 2-Ethylsulfanyl-N-[(3-fluorophenyl)-methyl]-6-[(4-fluorophenyl)-methyl-methyl-amino]-4-methyl-pyridine-3-carboxylic acid amide], the Emax is 122% and the EC50 worked out at 235 nM.

On to `CCSc1nc(N2CCOCC2)cc(C)c1C(=O)NCCCc1ccccc1` [Example 53, 2-Ethylsulfanyl-4-methyl-6-morpholin-4-yl-N-(3-phenyl-propyl)-pyridine-3-carboxylic acid amide], for which the Emax was found to be 191% and the EC50 came out at 248 nM.

In the case of `CCSc1nc(N2CCOCC2)cc(C)c1C(=O)NCCc1ccccc1` [Example 54, 2-Ethylsulfanyl-4-methyl-6-morpholin-4-yl-N-phenethyl-pyridine-3-carboxylic acid amide], the Emax is 103% and the EC50 stood at 2120 nM.
